Assay [1] in a line: Cytotoxicity against mouse EAC cells. In kind it is functional, cell-based, Ehrlich.
The nature of assay [2]: Cytotoxicity against mouse EAC cells assessed as nonviable cell at 100 ug/mL relative to doxorubicin. In kind it is functional, Ehrlich.
Assay [3] is described as follows: Cytotoxicity against mouse EAC cells assessed as nonviable cell at 50 ug/mL relative to doxorubicin. In kind it is functional, Ehrlich.
Assay [4] is described as follows: Cytotoxicity against mouse EAC cells assessed as nonviable cell at 25 ug/mL relative to doxorubicin. In kind it is functional, Ehrlich.
The nature of assay [5]: Cytotoxicity against mouse EAC cells assessed as nonviable cell at 10 ug/mL relative to doxorubicin. In kind it is functional, Ehrlich.
[6] abbreviates: Mus musculus, Ehrlich, read-out: IC50.

Regarding `COc1cc(N2C(N)=C(C#N)C(c3ccc(OC)c4ccccc34)C3=C2CC(C)(C)CC3=O)cc(OC)c1OC` (stereo not given), in assay [1] (ehrlich), the IC50 (commonly the concentration needed to halve the response being measured) was “Not Active”. Moreover, the Activity in assay [2] was found to be 40%; in assay [3], 40%; in assay [4], 30%; in assay [5], 10%.
For the compound `COc1cc(N2C(N)=C(C#N)C(c3ccccc3Cl)C3=C2CC(C)(C)CC3=O)cc(OC)c1OC` (stereo not given), the IC50 entry in assay [1] (ehrlich) is reported as “Not Active”. Further, the Activity in assay [2] is reported as 20%; in assay [3] it was 20%; in assay [4], 15%; in assay [5] it was 10%.
With `COc1ccc(C2C(C#N)=C(N)N(c3cc(OC)c(OC)c(OC)c3)C3=C2C(=O)CC(C)(C)C3)cc1` (stereo not given), in assay [1] (ehrlich), the IC50 result was “Not Active”. Moreover, the Activity in assay [2] came out at 15%; in assay [3], 11%; in assay [4], 1%; in assay [5], 0%.
As to `COc1cc(N2C(N)=C(C#N)C(c3c(OC)ccc4ccccc34)C3=C2CC(C)(C)CC3=O)cc(OC)c1OC` (stereo not given), in assay [1] (ehrlich), the IC50 result is given as “Not Active”. The Activity in assay [2] stood at 30%; in assay [3] it was 10%; in assay [4], 5%; in assay [5], 0%.
Consider `COc1cc(N2C(N)=C(C#N)C(/C=C/c3ccccc3)C3=C2CC(C)(C)CC3=O)cc(OC)c1OC` (stereo not given), for which, in assay [1] (ehrlich), the IC50 result is recorded as “Not Active”. For the same compound, the Activity is reported as 40% in assay [2], 30% in assay [3], 30% in assay [4] and 10% in assay [5].
Turning to `COc1cc(N2C(N)=C(C#N)C(c3ccccc3O)C3=C2CC(C)(C)CC3=O)cc(OC)c1OC` (stereo not given), in assay [1] (ehrlich), the IC50 entry is given as “Not Active”. The Activity in assay [2] is reported as 10%; in assay [3], 2%; in assay [4] it was 0%; in assay [5], 0%.
With `COc1cc(N2C(N)=C(C#N)C(c3ccc([N+](=O)[O-])cc3)C3=C2CC(C)(C)CC3=O)cc(OC)c1OC` (stereo not given), the IC50 in assay [1] (setting [6]) was 25 µM. Also, the Activity in assay [2] stood at 80%; in assay [3], 70%; in assay [4], 50%; in assay [5], 10%.
`COc1cc(N2C(N)=C(C#N)C(c3ccc4c(c3)OCO4)C3=C2CC(C)(C)CC3=O)cc(OC)c1OC` (stereo not given): the IC50 entry in assay [1] (ehrlich) is reported as “Not Active”. Further, the Activity in assay [2] was found to be 40%; in assay [3], 40%; in assay [4] it was 30%; in assay [5] it was 10%.
With `CCOc1cc(C2C(C#N)=C(N)N(c3cc(OC)c(OC)c(OC)c3)C3=C2C(=O)CC(C)(C)C3)ccc1O` (stereo not given), in assay [1] (ehrlich), the IC50 entry is listed as “Not Active”. Moreover, the Activity in assay [2] is 45%; in assay [3] it was 40%; in assay [4] it was 10%; in assay [5] it was 2%.
`COc1cc(N2C(N)=C(C#N)C(c3ccc(O)cc3)C3=C2CC(C)(C)CC3=O)cc(OC)c1OC` (stereo not given): the IC50 in assay [1] (setting [6]) is 75.8 µM. For the same compound, the Activity in assay [2] is 100%; in assay [3], 90%; in assay [4] it was 20%; in assay [5], 10%.
As for `COc1cc(N2C(N)=C(C#N)C(c3cccc([N+](=O)[O-])c3)C3=C2CC(C)(C)CC3=O)cc(OC)c1OC` (stereo not given), in assay [1] (ehrlich), the IC50 result is given as “Not Active”. In addition, the Activity in assay [2] amounted to 30%; in assay [3] it was 30%; in assay [4] it was 20%; in assay [5], 5%.
For the compound `COc1cc(N2C(N)=C(C#N)C(c3ccc(C)o3)C3=C2CC(C)(C)CC3=O)cc(OC)c1OC` (stereo not given), in assay [1] (setting [6]), the IC50 is 216 µM. Moreover, the Activity in assay [2] was found to be 50%; in assay [3], 41%; in assay [4], 31%; in assay [5], 21%.
Regarding `COc1cc(C2C(C#N)=C(N)N(c3cc(OC)c(OC)c(OC)c3)C3=C2C(=O)CC(C)(C)C3)ccc1O` (stereo not given), the IC50 entry in assay [1] (ehrlich) is “Not Active”. The Activity in assay [2] was 40%; in assay [3], 30%; in assay [4] it was 20%; in assay [5], 10%.
As to `COc1cc(N2C(N)=C(C#N)C(c3cccs3)C3=C2CC(C)(C)CC3=O)cc(OC)c1OC` (stereo not given), the IC50 result in assay [1] (ehrlich) is listed as “Not Active”. Besides, the Activity in assay [2] worked out at 20%; in assay [3], 15%; in assay [4] it was 10%; in assay [5], 5%.
Take `COc1cc(N2C(N)=C(C#N)C(c3ccc(Cl)cc3Cl)C3=C2CC(C)(C)CC3=O)cc(OC)c1OC` (stereo not given): the IC50 in assay [1] (setting [6]) turned out to be 94.7 µM. Moreover, the Activity in assay [2] turned out to be 100%; in assay [3] it was 95%; in assay [4], 55%; in assay [5], 20%.
`COc1cc(N2C(N)=C(C#N)C(c3ccc(C)cc3)C3=C2CC(C)(C)CC3=O)cc(OC)c1OC` (stereo not given): the IC50 in assay [1] (setting [6]) amounted to 52.9 µM. In addition, the Activity worked out at 90% in assay [2], 60% in assay [3], 50% in assay [4] and 30% in assay [5].
For `COc1ccccc1C1C(C#N)=C(N)N(c2cc(OC)c(OC)c(OC)c2)C2=C1C(=O)CC(C)(C)C2` (stereo not given), the IC50 in assay [1] (setting [6]) amounted to 26.6 µM. Also, the Activity in assay [2] is reported as 100%; in assay [3], 70%; in assay [4], 65%; in assay [5], 30%.
Regarding `COc1cc(N2C(N)=C(C#N)C(c3ccccc3)C3=C2CC(C)(C)CC3=O)cc(OC)c1OC` (stereo not given), the IC50 entry in assay [1] (ehrlich) is given as “Not Active”. The Activity worked out at 10% in assay [2], 8% in assay [3], 6% in assay [4] and 0% in assay [5].
For `COc1cc(N2C(N)=C(C#N)C(c3ccc(OC)c(OC)c3OC)C3=C2CC(C)(C)CC3=O)cc(OC)c1OC` (stereo not given), in assay [1] (ehrlich), the IC50 result is listed as “Not Active”. In addition, the Activity in assay [2] is 40%; in assay [3], 30%; in assay [4], 30%; in assay [5], 20%.
`COc1cc(N2C(N)=C(C#N)C(c3c(O)ccc4ccccc34)C3=C2CC(C)(C)CC3=O)cc(OC)c1OC` (stereo not given): the IC50 in assay [1] (setting [6]) is 143 µM. The Activity is 90% in assay [2], 15% in assay [3], 10% in assay [4] and 2% in assay [5].
Turning to `COc1cccc2c1C(=O)c1c(O)c3c(c(O)c1C2=O)C[C@@](O)(C(=O)CO)C[C@@H]3O[C@H]1C[C@H](N)[C@H](O)[C@H](C)O1` [DOXORUBICIN], in assay [1] (setting [6]), the IC50 was determined as 68.1 µM. Also, the Activity was determined as 100% in assay [2], 68% in assay [3], 30% in assay [4] and 24% in assay [5].
